Data set [1] can be described thus: Bioavailability assay: single oral dose, plasma analysed by HPLC-UV, AUC compared with amorphous suspension control. The data set is classed as in vivo, male cynomolgus monkeys. The conditions noted are these: for bioavailability (in words): observed while developing a solid dosage form with conventional excipients. On the procedure: The formulation to be tested was administered orally to male cynomolgus monkeys in a single dose (PO, single). The number of monkeys for each test is indicated by the letter “N” followed by an equal sign and a number. Thus, “(N=6)” means the formulation was administered to six monkeys. The total amount of the compound of Formula I administered was 100 or 200 mg given as one capsule or tablet containing 100 or 200 mg each. The administered dose (tablet, capsule or control suspension) was slowly washed down with 10 mL of water. Blood samples were taken at 15, 30 minutes, 1 hour, 2 hours, 4 hours, 6 hours, 8 hours, 12 hours, 24 hours, and 48 hours in heparinized syringes. Plasma for analysis was obtained by centrifugation at 4° C. Plasma samples (one per time point) were split and stored at −20° C. until assayed as described below.
The monkeys to be tested were fed two biscuits in the morning on the day of drug administration.
Monkeys that were fasted were not given any food overnight before drug administration and were fed normally after the 4-hour time point after drug administration.
Samples of monkey plasma were collected at selected time intervals. The plasma was analyzed by a high pressure liquid chromatograph (HPLC) procedure with ultraviolet detection. AUC (area under the plasma concentration-time curve, […]) values were calculated using standard procedures to determine the relative bioavailability of the compound in the tested formulations. The larger the AUC value, the greater the bioavailability.
A suspension of the compound of Formula I was used as a control. The control was made by suspending sufficient compound of Formula I in methyl cellulose solution to provide a dose of 30 mg/kg of body weight of monkey. The 0.4% methyl cellulose solution was made by adding 4 grams of methyl cellulose to one liter of distilled water and heating at about 80° C. with stirring for about 1½ hours.
The results of the bioavailability assay are given in terms of percent-relative bioavailability (AUC ratio) compared to amorphous suspension of Compound I in 0.4 methyl cellulose solution.

The target of data set [2] is farnesyl protein transferase (Homo sapiens, UniProt P49356). The conditions noted are these: cited from earlier work.
The test system of a further data set is abnormal growth of cells. Particulars: cited from earlier work.
[3] abbreviates: fed monkeys, suspension of crystalline form vs suspension of amorphous form.
[4] abbreviates: suspension of crystalline form vs suspension of amorphous form, feeding state not printed in the sentence (fasted implied by b145).

Regarding `NC(=O)N1CCC(CC(=O)N2CCC(C3c4ncc(Br)cc4CCc4cc(Cl)cc(Br)c43)CC2)CC1` (single isomer, unassigned; (+)) [Compound I, (+)-4-[4-(8-chloro-3,10-dibromo-6,11-dihydro-5H-benzo [5,6cyclohepta[1,2-b]pyridin-11-yl)-1-piperidinyl]-2-oxoethyl]-1-piperidinecarboxamide], in data set [1] (setting [3]), the “relative bioavailability, % of the AUC of the amorphous suspension” value is recorded as 3.6% and the “relative bioavailability, % of the C max of the amorphous suspension” value is 5.2%. In data set [1] (listed as compound of Formula I), the “bioavailability (in words)” value was “extremely poor”. In addition, the “bioavailability (in words)” value in data set [1] (listed as crystalline Compound I) is recorded as “very poor”. Besides, in data set [1] (setting [4]), the “relative bioavailability, % of the AUC of the amorphous suspension” value is given as 1.3% and the “relative bioavailability, % of the Cmax of the amorphous suspension” value is 2.7%. Moreover, the “activity for inhibiting farnesyl protein transferase (in words)” value in data set [2] is “potent activity”. In the data set with abnormal growth of cells, the “activity for inhibiting the abnormal growth of cells (in words)” value is given as “potent activity”.
